Entries after “also recorded” stand apart in the source; their conditions may differ.
Columns and labels:
[1] = equimolar N-AcMet, 37° C.
Protocol: NMR spectra were collected on a Varian 500 spectrometer equipped with a triple-resonance broadband inverse probe and a variable temperature unit. The 1-D ^1H NMR kinetic studies were performed in duplicate as a standard time-arrayed experiment using a variable delayed list. Incremented 1-D spectra were processed in exactly the same way and signals of aromatic amine ligands from platinum compounds were integrated. The relative concentrations of the platinum compound at each time point were calculated from peak integrals. […] Reactions of platinum compounds with N-AcMet were performed in NMR tubes containing 2 mM of the Pt complex and 2 mM (1 equiv) of N-AcMet in 10 mM PBS buffer, D2O, pH*7.4 at 37° C. […] Deuterated 3-(trimethylsilyl)propionic acid sodium salt (TMS-PFASS) was used as an internal standard. The pH* values are the measured pH values without correction for the effect of deuterium on the electrode.
(pH*=refers to a pH measurement uncorrected for the effect of deuterium on the electrode.)

[2] = tested on: GLuc expression from transfected A549 cells; test: GLuc transcription assay, globally platinated probes, A549; type: cell-based, human; conditions: for transcription level (normalized against unplatinated plasmid): Pt/DNA ratio of […] for phenanthriplatin; for transcription inhibition, in words: globally platinated probes
Protocol: (§1) Transfection of transcription probes into A549 and HT29 cells with the pGLuc plasmid was carried out using liposomal transfecting agents. Determination of expression levels was tested by Luciferase assays monitored by a luminometer (J. Am. Chem. Soc. 2010, 132, 7429-7435). A549 cells were plated in 96-well plates at 2,000 cells/well and HT29 cells were plated in 96-well plates at 6,000 cells/well. After 48 h incubation (at ˜30% confluence), cells were transfected with 50 ng of platinated plasmids in 25 μL Opti-MEM and 0.125 μL Lipofectamine 2000, and subsequently 50 μL of antibiotics-free DMEM supplemented with 10% FBS. After 2 h, the cells were washed with medium and 100 μL of fresh medium was added. The experiment was carried out in quadruplicate.
(§2) GLuc activity was monitored using a luminescence plate reader (Synergy 2, BioTek, Winooski, Vt., USA). A 10 μL volume of medium at different time points (12, 24, 36, 48, 60 h) was transferred into opaque white 96-well plates, and 25 μL of GLuc assay solution (10 μM colelenterazine (NanoLight Technologies, Pinetop, Ariz., USA) in 2.5 mM acidified methanol (100 mM HCl), buffer (10 mM Tris-HCl pH 7.8, 1 mM EDTA, 0.6 M NaCl)) was added by the automatic injector of the instrument.
(§3) Investigations of the cellular processing of Pt-DNA lesions are important for understanding the mechanism of action of platinum drugs. One of the major consequences of Pt-DNA damage is transcription inhibition, the extent of which dictates the efficacy of Pt drugs.
(§4) A549 or HT29 cells were transfected using these platinated transcription probes for 2 h at 37° C. and cell media were collected at 12, 24, 36, 48, and 60 h after the transfection. The levels of GLuc expression in cells were measured using a luminometer. The intensity values were normalized against controls (unplatinated plasmid). Transcription profiles were obtained by plotting normalized levels of GLuc expression against platination levels (Pt/plasmid ratio) at five different time points (FIG. 5). […] In FIG. 5: transcription profiles of globally platinated probes in A549 (top) and HT29 (bottom) cells.
(§5) In another embodiment, A549 or HT29 cells were transfected using the platinated transcription probes, and transcription levels were investigated by determining GLuc expression as measured by […] following addition of coelenterazine as a substrate for the exported enzyme. The emission intensities were normalized against unplatinated plasmids as a control. Transcription profiles were obtained by plotting normalized levels of GLuc expression against platination levels (Pt/plasmid ratio) at five different time points. […] An increase in D0 value at different time points represents restoration of transcription.

[3] = tested on: pGLuc plasmid; test: Global platination of pGLuc plasmid; conditions: for level of DNA-bound compound per amount added (rb vs. rf): 16 h, 24 mM HEPES pH 7.4, 10 mM NaCl; for level of DNA-bound compound per amount added (rb vs. rf) / rb (bound Pt/nucleotide): 37° C.
Protocol: The resulting mixtures were dialyzed (molecular weight cut-off 3.5 kDa) against ddH2O overnight at 4° C. with five changes of ddH2O. The rb values (bound Pt/nucleotide) were determined by UV/Vis and atomic absorption spectroscopy.
In one embodiment, the ratio of bound platinum per plasmid was determined by measuring the Pt concentration by atomic absorption spectroscopy and the DNA concentration by UV/Vis spectroscopy.

[4] = 16 equiv 5′-dGMP, 37° C., PBS pH 7.4
Protocol: The 1-D ^1H NMR kinetic studies were performed in duplicate as a standard time-arrayed experiment using a variable delayed list. Incremented 1-D spectra were processed in exactly the same way and signals of aromatic amine ligands from platinum compounds were integrated. The relative concentrations of the platinum compound at each time point were calculated from peak integrals. […] Reactions of platinum compounds with 5′-dGMP were performed in NMR tubes containing 2 mM of the platinum compounds and 32 mM (16 equiv) of 5′-dGMP in 10 mM PBS buffer, D2O, pH*7.4 at 37° C. Deuterated 3-(trimethylsilyl)propionic acid sodium salt (TMS-PFASS) was used as an internal standard. The pH* values are the measured pH values without correction for the effect of deuterium on the electrode.

[5] = tested on: calf thymus DNA; test: Ethidium bromide DNA-binding competition, Scatchard analysis; set-up: key: competitive (type A); non-competitive (type D); both (type B); No inhibition of ethidium binding is labeled as type C
Text: Using this approach, it is possible to determine whether the inhibition of ethidium binding is competitive (type A), non-competitive (type D), or both (type B). No inhibition of ethidium binding is labeled as type C.

[6] = tested on: human lung carcinoma A549 cells; test: MTT assay, A549 cells; type: cell-based
Protocol: (§6) Solutions of the platinum compounds were freshly prepared in sterile PBS before use and their concentrations quantitated by atomic absorption spectroscopy. Cells were seeded on a 96-well plate (1200 cells per well for cancer cells and 1800 cells per well for the normal lung fibroblasts) in 100 μL RPMI or DMEM media, and incubated for 24 h. […] The cells were then treated with 20 μL of 3-(4,5-dimethylthiazol-2-yl)-2,5-diphenyltetrazolium bromide (MTT) (5 mg/mL in PBS) and incubated for 4 h. The medium was removed, 100 μL of DMSO was added to the cells, and the absorbance of the purple formazan was recorded at 560 nm using a BioTek Synergy HT multi-detection microplate plate reader. Each condition was performed in triplicate and three independent experiments were carried out for each cell line.
Solutions of the platinum agents were freshly prepared in sterile PBS before use and the platinum content was quantitated by AAS. Cells were seeded on 96 well plates (1200 cells per well) in 100 μL RPMI or DMEM media\ and incubated for 24 hours. […] The cells were then treated with 20 μL of 3-(4,5-dimethylthiazol-2-yl)-2,5-diphenyltetrazolium bromide (MTT) (5 mg/mL in PBS) and incubated for 4 h. The medium was removed, 100 μL of DMSO were added to the cells, and the absorbance of the purple formazan was recorded at 570 nm using a BioTek Synergy HT multi-detection microplate plate reader. For each cell line, three independent experiments were carried out in triplicate.

[7] = Aquation in D2O by 1H NMR; conditions: 37° C.
Protocol: The 1-D ^1H NMR kinetic studies were performed in duplicate as a standard time-arrayed experiment using a variable delayed list. Incremented 1-D spectra were processed in exactly the same way and signals of aromatic amine ligands from platinum compounds were integrated. The relative concentrations of the platinum compound at each time point were calculated from peak integrals. […] Reactions of platinum compounds with 5′-dGMP were performed in NMR tubes containing 2 mM of the platinum compounds and 32 mM (16 equiv) of 5′-dGMP in 10 mM PBS buffer, D2O, pH*7.4 at 37° C.

[8] = tested on: normal lung fibroblast MRC5; test: MTT assay, MRC5 cells; type: cell-based, human; conditions: MRC5, 72-h incubation, Table 5
Protocol: as §6

[9] = tested on: GLuc expression from transfected HT29 cells; test: GLuc transcription assay, globally platinated probes, HT29; type: cell-based, human; conditions: for transcription level (normalized against unplatinated plasmid): Pt/DNA ratio of […] for phenanthriplatin; for transcription inhibition, in words: globally platinated probes
Protocol: as §1, §2, §3, §4, §5

[10] = tested on: NTera2 (Testis) cells; test: MTT assay, NTera2 cells; type: cell-based, human; conditions: 72-h incubation, Table 3
Protocol: as §6

[11] = tested on: human bone sarcoma U2OS cells; test: MTT assay, U2OS cells; type: cell-based; conditions: 72-h incubation
Protocol: Human colon carcinoma HT29, human breast carcinoma MCF7, human bone sarcoma U2OS, human prostate carcinoma PC3, and human cervix carcinoma HeLa cells were obtained from the ATCC. A2780/CP70 cisplatin-resistant human ovarian cancer cells were kindly provided by Dr. Stephen B. Howell (Moores UCSD Cancer Center) and the human lung carcinoma cell lines A549 and normal lung fibroblast MRC5 by David E. Root (Whitehead Institute for Biomedical Research). Cells were incubated at 37° C. in 5% CO2 and grown in RPMI (HT29, A2780/CP70, and PC3) or DMEM (A549, MRC5, HeLa, MCF7, and U2OS) medium supplemented with 10% fetal bovine serum and 1% penicillin/streptomycin. Cells were passed every 3 to 4 days and restarted from a frozen stock upon reaching pass number 20.
Solutions of the platinum compounds were freshly prepared in sterile PBS before use and their concentrations quantitated by atomic absorption spectroscopy. […] The cells were then treated with 20 μL of 3-(4,5-dimethylthiazol-2-yl)-2,5-diphenyltetrazolium bromide (MTT) (5 mg/mL in PBS) and incubated for 4 h. The medium was removed, 100 μL of DMSO was added to the cells, and the absorbance of the purple formazan was recorded at 560 nm using a BioTek Synergy HT multi-detection microplate plate reader. Each condition was performed in triplicate and three independent experiments were carried out for each cell line. […]

[12] = tested on: human cervix carcinoma HeLa cells; test: MTT assay, HeLa cells; type: cell-based; conditions: 72-h incubation, Table 5
Protocol: as §6
Solutions of the platinum agents were freshly prepared in sterile PBS before use and the platinum content was quantitated by AAS. […] The medium was removed, 100 μL of DMSO were added to the cells, and the absorbance of the purple formazan was recorded at 570 nm using a BioTek Synergy HT multi-detection microplate plate reader. […]

[13] = tested on: human colon carcinoma HT29 cells; test: MTT assay, HT29 cells; type: cell-based; conditions: HT29, 72-h incubation, Table 5
Protocol: Solutions of the platinum compounds were freshly prepared in sterile PBS before use and their concentrations quantitated by atomic absorption spectroscopy. Cells were seeded on a 96-well plate (1200 cells per well for cancer cells and 1800 cells per well for the normal lung fibroblasts) in 100 μL RPMI or DMEM media, and incubated for 24 h. […] The medium was removed, 100 μL of DMSO was added to the cells, and the absorbance of the purple formazan was recorded at 560 nm using a BioTek Synergy HT multi-detection microplate plate reader. […]

pyriplatin
reaction with N-AcMet more rapid than that for phenanthriplatin [1]: > 10 fold | second-order rate constant, reaction with N-AcMet [1]: 0.156 M⁻¹ s⁻¹ | transcription level (normalized against unplatinated plasmid) ([2]; 12 h): 55.2% | transcription level (normalized against unplatinated plasmid) ([2]; 60 h): 66.8% | transcription inhibition, in words [2]: less efficient than that of either cisplatin or phenanthriplatin by a factor of two | level of DNA-bound compound per amount added (rb vs. rf) [3]: almost identical to that of cisplatin | Pt per plasmid ([3]; rf 0.0016): 13.33 Pt per plasmid | rb (bound Pt/nucleotide) ([3]; rf 0.0016, 16 h): 0.0017 | Pt per plasmid ([3]; rf 0.004): 31.19 Pt per plasmid | rb (bound Pt/nucleotide) ([3]; rf 0.004, 16 h): 0.0039 | Pt per plasmid ([3]; rf 0.0076): 57.96 Pt per plasmid | rb (bound Pt/nucleotide) ([3]; rf 0.0076, 16 h): 0.0073 | Pt per plasmid ([3]; rf 0.015): 117.31 Pt per plasmid | rb (bound Pt/nucleotide) ([3]; rf 0.015, 16 h): 0.0015 | pseudo-first order rate constant, reaction with 5′-dGMP [4]: 0.29 h⁻¹ | type of inhibition of ethidium binding ([5]; 12-h incubation period): C | type of inhibition of ethidium binding ([5]; 1 min incubation period): C | IC50 ([6]; A549, 72-h incubation, Table 5): 62.1 ± 2.3 µM | time to complete aquation (equilibrium with aqua analogue) [7]: ≤ 1 h | IC50 [8]: 82.1 µM | transcription level (normalized against unplatinated plasmid) ([9]; 12 h): 55.3% | transcription level (normalized against unplatinated plasmid) ([9]; 60 h): 75.2% | transcription inhibition, in words [9]: less efficient than that of either cisplatin or phenanthriplatin by a factor of two

O=C1[O][Pt]2([NH][C@@H]3CCCC[C@H]3[NH]2)[O]C1=O [oxaliplatin]
IC50 [10]: 1.21 ± 0.06 µM | IC50 ([11]; U2OS (Bone), Table 3): 6.67 ± 0.59 µM | IC50 ([6]; A549 (Lung), 72-h incubation, Table 3): 8.79 ± 0.26 µM

O=[N+]([O-])[O-].[NH3+][Pt-2]([NH3+])([Cl])[n+]1cccc2ccccc21 (stereo not drawn) [cis-[Pt(NH3)2(quinoline)Cl]NO3]
IC50 ([11]; U2OS, Table 5): 23.5 ± 2.7 µM | IC50 ([6]; A549, 72-h incubation, Table 5): 6.11 ± 0.68 µM | IC50 [8]: 23.5 ± 1.6 µM | IC50 [12]: 12.2 ± 0.8 µM | IC50 [13]: 38 ± 4.5 µM

cis-[Pt(NH3)2(phenanthridine)Cl]NO3 [phenanthriplatin]
transcription inhibition, in words [2]: as strongly as cisplatin; also recorded: as efficiently as cisplatin | level of DNA-bound compound per amount added (rb vs. rf) [3]: almost identical to that of cisplatin | rb (bound Pt/nucleotide) ([3]; rf 0.0008, 16 h): 0.0015 | rb (bound Pt/nucleotide) ([3]; rf 0.0019, 16 h): 0.0019 | rb (bound Pt/nucleotide) ([3]; rf 0.0029, 16 h): 0.0030 | rb (bound Pt/nucleotide) ([3]; rf 0.0060, 16 h): 0.0053 | type of inhibition of ethidium binding ([5]; 12-h incubation period): D | type of inhibition of ethidium binding ([5]; 1 min incubation period): C | time to complete aquation (equilibrium with aqua analogue) [7]: ≤ 1 h | transcription inhibition, in words [9]: as strongly as cisplatin; also recorded: as efficiently as cisplatin

— US20130029959A1, “COMPOSITIONS AND METHODS FOR THE TREATMENT OF CANCER” (Massachusetts Institute of Technology, priority 2011, published 2013)
